Experiments:
[1] = test system: DSS colitis; test: DSS model of colitis; format: in vivo, mice; conditions: 10 mg/kg once daily oral gavage, 7 days of DSS, vs vehicle
Procedure: DSS model. Mice were given DSS in drinking water for seven days to induce disruption of the epithelial layer. At project initiation, mice were 8 weeks of age and began dosing 24 hours after being placed on DSS. BT-108-1 was prepared within a 0.5% methylcellulose (12-15 cP) solution. Dosage used was 10 mg/kg delivered once daily. Dosage was calculated based off mean body weights for each gender. Oral dosage was delivered by orogastric gavage of dosage in 0.2 mL volume.
Flow Cytometry. Colons were collected into RPMI/FBS buffer containing collagenase (300 U/mL) and DNase (50 U/mL) for digestion. Tissues were digested for 60 minutes under stirring at 37° C. Resultant cellular suspensions were filtered through 100 μm strainers, centrifuged (300× g, 8 min), and washed in fresh RPMI. Following filtration of the resulting single cell suspensions, immune cells were purified by Percoll gradient of cell-containing 40% Percoll overlayed onto 70% Percoll solution. After centrifugation, interphase was collected and washed to obtain enriched colonic lamina propria cell fractions. Cells were labeled with mixtures of extracellular (CD45, CD3, CD4, CD8, CD19, NK1.1, F4/80, CD11b, Gr1) antibodies in a sequential live staining in 96-well plates. Data was acquired using a FACS Celesta flow cytometer with FACSDiva software.
Histopathology. Colonic tissues were fixed in 10% formalin, paraffin embedded, and H&E stained. Sections were examined using an Olympus microscope. Histological score was assessed through a composite scoring system of leukocytic infiltration, epithelial erosion, and mucosal thickness.

[2] = test system: imiquimod-induced psoriasis; test: Imiquimod induced model of psoriasis; format: in vivo, C57BL/6 mice; conditions: 10 mg/kg oral gavage daily, one week, vs vehicle
Procedure: IMQ-induced model. C57BL/6 mice were anesthetized, shaved, and briefly exposed to depilatory cream on the surface of the back. Mice were given three days to recover from the procedure prior to entry to the study. After 3 days, mice were challenged with approximately 60 mg of […] imiquimod cream daily by spreading cream over the shaved area. Mice were scored daily for erythema, scaling and skin thickness. Treatment with BT-108-1 (10 mg/kg) or vehicle control occurred by oral gavage. Dosage was calculated based off mean body weights.
Analysis. Spleens were excised and crushed by microscope slides. Red blood cells were hypotonically lysed from the resultant suspension. Samples were filtered, washed and centrifuged prior to staining. Th1 (Tbet+ IFNγ+), Th17 (RORγT+ IL17+), Treg (CD25+ FOXP3+ IL10+) and Tfh (BCL6+ IL21+) were quantified from CD3+ CD4+ T cells by flow cytometry.

[3] = test system: Western diet model of nonalcoholic steatohepatitis; test: Western diet / CCl4 model of nonalcoholic steatohepatitis; format: in vivo, C57BL/6 mice; conditions: 5 mg/kg oral gavage daily, after 4 weeks of treatment, vs vehicle
Procedure: WD-induced model. C57BL/6 mice were placed on a Western diet consisting of a high-fat diet with addition of 23.1 g/L d-fructose and 18.9 g/L d-glucose to drinking water and weekly intraperitoneal injections of 0.2 μL/g CCl4 to induce steatohepatitis. Matching groups on control diet were included. Mice were treated daily, in a therapeutic manner after 8 weeks of diet. Treatment with BT-108-1 (5 mg/kg) or vehicle control occurred by oral gavage. Dosage was calculated based off mean body weights.
Analysis. Livers were excised and weighed. Sections of livers were excised and stored in buffered formalin for Sirius red staining or snap frozen for assessment of triglycerides. Severity of fibrosis was assessed by scoring of Sirius red stained liver.

[4] = test system: NOD model of type 1 diabetes; test: NOD mouse model of type 1 diabetes; format: in vivo, Non-obese diabetic (NOD) ShiLt mice; conditions: 10 mg/kg oral gavage daily, vs vehicle
Procedure: NOD model. Non-obese diabetic (NOD) ShiLt mice were used in this study. NOD mice have numerous genetic mutations that enable the spontaneous onset of hyperglycemia and pancreatic pathologies associated with T1D. Mice entered into the experiment at 9 weeks of age and were monitored for a 12-week period. Mice were treated daily with vehicle or 10 mg/kg BT-108-1 by oral gavage. Once weekly blood samples were collected from the tail vein to be tested for glucose concentration by glucometer.

[5] = test system: collagen induced arthritis; test: Collagen induced model of arthritis; format: in vivo, C57Bl/6 mice; conditions: 5 mg/kg oral daily for four weeks, vs vehicle
Procedure: Models. Six-week-old C57Bl/6 mice were immunized with 200 μg of chicken collagen emulsified in complete Freund's adjuvant by intradermal injections at the base of the tail. Mice were treated with 5 mg/kg of BT-108-1 or vehicle, daily for four weeks.
Immunological analysis. Spleens were excised from mice. Tissues were crushed and filtered to provide a cellular suspension. Red blood cells were lysed. Cells were labeled with mixtures of extracellular (CD45, CD3, CD4, CD8, B220, CD19, CD138, CD21, CD24, CD1d, CD11b, CD86, CD80) and intracellular (BCL6, IL21, IL10, TNF) antibodies in a sequential live staining in 96-well plates in preparation for flow cytometry. Data was captured on a BD FACS Celesta and analyzed using FACSDiva.

[6] = test system: CD4+ T cells; test: Immunological screening in vitro in CD4+ T cells (flow cytometry); format: cell-based, C57BL/6 mice; conditions: 100 nanomolar, 24 h, anti-CD3/CD28, PMA and ionomycin last 6 h, relative to vehicle control
From the text: Cell culture. Spleens were excised from C57BL/6 mice. Spleens were crushed between the frosted ends of microscope slides and filtered to provide a cellular suspension. Red blood cells were lysed through hypotonic lysis. Remaining cells were washed and filtered. CD4+ T cells were enriched within the suspension using magnetic sorting based negative selection. Cells were collected and plated within 96 well plates coated with anti-CD3/CD28 and cultured in the presence of BT-108-1, BT-108-2, BT-108-6, BT-108-8, BT-108-12, and BT-108-15 at 0 or 100 nanomolar for 24 h. During the last 6 h of culture, cells were stimulated with phorbol 12-myristate-13-acetate (PMA) and ionomycin.
Immunological analysis. Cells were collected from 96 well plates and stained with a cocktail of antibodies for immunophenotyping by flow cytometry. Culture supernatant was collected and assayed for cytokine concentrations by cytometric bead array. Data was captured on a BD FACS Celesta and analyzed using FACSDiva.

## O=C(Nc1cncc(-c2cnnc3ccccc23)c1)C(O)(c1ccccc1)c1ncc[nH]1 (stereo not drawn) [BT-108-1, N-(5-(cinnolin-4-yl)pyridin-3-yl)-2-hydroxy-2-(1H-imidazol-2-yl)-2-phenylacetamide]
[1]
  Th17 cells (CD4+ IL17+) in the colonic lamina propria: decreased
  histopathology score (colon): decreased
  neutrophils in the colonic lamina propria: decreased
[2]
  Th17 cells (CD4+ IL17+) in the spleen: reduced
  severity of disease (composite scoring of skin): reduced
[3]
  body weight normalized liver weights: reduced
  fibrotic scoring (Sirius red stained liver): reduced
  liver triglycerides: reduced
[4]; by the end of the study
  proportion of mice that developed hyperglycemia: lower proportion
[4]; throughout the 12-week treatment period
  fasting blood glucose levels: lower
[5]
  proportion of IL-17+ CD4+ T cells in the spleens: significantly reduced
  proportion of TNF+ immune cells in the spleens: significantly reduced
[6]
  IFNγ production / IFNγ+ CD4+ T cells: significant reduction
  TNFα production / TNF+ CD4+ T cells: significant reduction

## O=C(Nc1cncc(-c2cnnc3ccc(C(F)(F)F)cc23)c1)C(O)(c1ccccc1)c1ncc[nH]1 (stereo not drawn) [BT-108-15, N-(5-(6-trifluoromethylcinnolin-4-yl)pyridin-3-yl)-2-hydroxy-2-(1H-imidazol-2-yl)-2-phenylacetamide]
[6]
  IFNγ production / IFNγ+ CD4+ T cells: significant reduction
  TNFα production / TNF+ CD4+ T cells: significant reduction

## COc1cccc(C(O)(C(=O)Nc2cncc(-c3cnnc4ccccc34)c2)c2ncc[nH]2)c1 (stereo not drawn) [BT-108-12, N-(5-(cinnolin-4-yl)pyridin-3-yl)-2-hydroxy-2-(1H-imidazol-2-yl)-2-(3-methoxyphenyl)acetamide]
[6]
  IFNγ production / IFNγ+ CD4+ T cells: significant reduction
  TNFα production / TNF+ CD4+ T cells: significant reduction
